Ends that are not written are not given here. PEG = not defined here
How the values were obtained:
Format in all cases: cell-based
[1] = test system: human lung squamous carcinoma cells (NCI-H226); test: scratch assay, migration of NCI-H226 cells; settings: NCI-H226, 10 μM, 48 hours; control group 65.31 ± 3.19
Method in brief: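 A straight scratch was made in confluent NCI-H226 monolayers (1-2×10^5 cells/well). Cells were then kept 48 h in 2% FBS medium with 10 μM polypeptide or PBS control, triplicate wells. Migration rate (%) = (original − current scratch width)/original width ×100, from imaged scratch widths.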

[2] = test system: human pancreatic cancer cells (PANC-1); test: transwell migration assay, PANC-1 cells; settings: PANC-1 transwell migration, 10 μM, 24 hours; control group 360 ± 60
Method in brief: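 Serum-free PANC-1 cells placed in the upper transwell chamber with complete medium below; after 4-5 h, peptide added to the upper chamber at a final 10 μM. Migration ran 24 h at 37 °C; cells on the membrane underside were methanol-fixed, crystal violet-stained and counted by microscopy.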

[3] = test system: human liver adenocarcinoma cells (SK-HEP-1); test: transwell invasion assay, SK-HEP-1 cells; settings: SK-HEP-1 transwell invasion, 10 μM, 24 hours; control group 767 ± 91
Method in brief: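 Serum-free SK-HEP-1 cells were seeded in matrigel-coated upper chambers over complete medium. After 4-5 h, peptide was added to the upper chamber at 10 μM final. Following 24 h at 37° C., invaded cells were fixed, crystal violet-stained, imaged and counted.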

[4] = test system: human melanoma cells (A375); test: scratch assay, migration of A375 cells; settings: A375, 10 μM, 48 hours; control group 44.03 ± 6.21
Method in brief: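 Monolayers scratched, washed with PBS and cultured 48 hours in 2% FBS medium with polypeptides N1-N54 at 10 μM or PBS control, three wells per group. Migration rate (%) = (original − current scratch width)/original width×100, from imaged scratch widths.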

[5] = test system: human oral epidermoid carcinoma KB cells; test: scratch assay, migration of KB cells; settings: 10 μM, 48 hours, control group 54.03 ± 4.21
Method in brief: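 Monolayers of KB cells were scratched, washed with PBS, then cultured 48 hours in 2% FBS medium containing test polypeptide (10 μM) or PBS control, in triplicate wells. From images, migration rate (%) = (original − current scratch width)/original width × 100.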

[6] = test system: human pharyngeal squamous-cell carcinoma cells (Fadu); test: scratch assay, migration of Fadu cells; settings: 10 μM, 48 hours, control group 28.76 ± 4.08
Method in brief: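 Confluent Fadu monolayers scratched, then cultured 48 h with 10 μM polypeptide in medium with 2% FBS; PBS control, triplicate wells. Migration rate (%) = (original − current scratch width)/original width × 100, from ≥3 images per well.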

[7] = test system: human colon cancer cells (HCT-116); test: scratch assay, migration of HCT-116 cells; settings: HCT-116, 10 μM, 48 hours; control group 47.78 ± 6.07
Method in brief: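 Confluent HCT-116 monolayers were scratched, washed and cultured 48 h in 2% FBS medium with peptide at 10 μM versus PBS control, triplicate wells. Migration rate (%) = (original minus current scratch width)/original width × 100, from at least 3 images per well.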

[8] = test system: human thyroid cancer cells (FRO); test: scratch assay, migration of FRO cells; settings: 10 μM, 48 hours, control group 60.34 ± 8.32
Method in brief: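 FRO monolayers were scratched, washed, and cultured 48 h in 2% FBS medium with polypeptide derivatives at 10 μM or PBS control, three wells per group. Migration rate (%) = (original − current scratch width)/original width × 100, measured from images.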

| Substance | Migration rate (%) (mean ± SD, P) [1] | Number of cells (mean ± SD, P), migrated cells [2] | Number of cells (mean ± SD, P), invaded cells [3] | Migration rate (%) (mean ± SD, P) [4] | Migration rate (%) (mean ± SD, P) [5] | Migration rate (%) (mean ± SD, P) [6] | Migration rate (%) (mean ± SD, P) [7] | Migration rate (%) (mean ± SD, P) [8] |
| --- | --- | --- | --- | --- | --- | --- | --- | --- |
| N47: SEQ ID NO: 1 with N18R, deletion of positions 1-2, one amino acid added and PEG at the carboxyl terminal (VRFLAKENVTQDAEDRC-{PEG}; reading uncertain) | 53.86 ± 3.61,* % | 135 ± 10,*** | 85 ± 16,**** | 8.82 ± 2.49,*** % | 8.82 ± 1.89,*** % | 10.27 ± 4.61,*** % | 18.92 ± 2.11,** % | 16.47 ± 3.83,** % |
| N48: SEQ ID NO: 1 with A7R, deletion of position 11 and position 18, PEG modification at the carboxyl terminal (YRVRFLRKENTQDAED-{PEG}; reading uncertain) | 25.07 ± 4.31,*** % | 152 ± 18,*** | 109 ± 10,**** | 9.09 ± 2.23,*** % | 9.09 ± 4.23,*** % | 8.78 ± 4.34,*** % | 18.03 ± 4.62,** % | 13.78 ± 2.61,*** % |
| N49: SEQ ID NO: 1 with A7R, deletion of positions 1-2 and position 18, PEG modification at the carboxyl terminal (VRFLRKENVTQDAED-{PEG}; reading uncertain) | 38.90 ± 5.49,** % | 137 ± 29,*** | 335 ± 32,*** | 6.51 ± 1.53,*** % | 16.51 ± 3.93,** % | 6.29 ± 2.62,*** % | 18.84 ± 2.99,** % | 15.77 ± 2.99,** % |
| N50: SEQ ID NO: 1 with N18R, addition of 2 amino acid at the carboxyl terminal, PEG modification at the amino terminal ({PEG}-YRVRFLAKENVTQDAEDRCT; reading uncertain) | 33.20 ± 3.59,** % | 230 ± 11,** | 243 ± 46,**** | 15.97 ± 2.33,** % | 15.97 ± 2.93,** % | 5.44 ± 1.44,*** % | 17.04 ± 4.96,** % | 11.80 ± 4.15,*** % |
| N51: SEQ ID NO: 1 with A15R, one amino acid added at each terminal, PEG modification at the amino terminal ({PEG}-FYRVRFLAKENVTQDREDNC; reading uncertain) | 33.16 ± 4.43,** % | 214 ± 17,*** | 248 ± 39,**** | 17.96 ± 3.20,** % | 37.96 ± 3.60,* % | 8.71 ± 1.79,*** % | 16.11 ± 3.20,** % | 17.93 ± 5.55,** % |

From patent US20220280594A1, “APPLICATION OF POLYPEPTIDE OR DERIVATIVE THEREOF” (CHENGDU HUITAI BIOMEDICINE CO., LTD., priority 2019, published 2022)
